Assay results taken from ChEMBL document CHEMBL2069287, “Salidroside protects human erythrocytes against hydrogen peroxide-induced apoptosis” (J Nat Prod, 2012).
Activity calls are given as the source filed them. The rule behind the calls is not given here.

What was measured:
Erythrocyte [1] = experiment: Cytoprotective activity in human erythrocytes assessed as decrease in H202-induced caspase-3-mediated FAM-DEVD-FMK cleavage at 100 uM after 24 hrs by fluorometric assay (reference value: 51.22%); format: functional; set-up: scale not given: the % may be the effect or the level left
Erythrocyte [2] = experiment: Cytoprotective activity in human erythrocytes assessed as decrease in caspase-3-mediated FAM-DEVD-FMK cleavage at 300 uM after 24 hrs by fluorometric assay (reference value: 0.28%); format: functional; set-up: scale not given: the % may be the effect or the level left
Erythrocyte [3] = experiment: Cytoprotective activity against H202-induced eryptosis in human erythrocytes assessed as early apoptotic cells at 300 uM after 24 hrs by PE-annexinV/calcein flow cytometric assay (reference value: 9.34%); format: functional
[4] = Toxicity in human erythrocytes assessed as hemolysis up to 400 uM after 24 hrs by spectrophotometry; format: cell-based; settings: erythrocyte
Erythrocyte [5] = experiment: Cytoprotective activity in human erythrocytes assessed as decrease in ionomycin-induced cytosolic free calcium level at 100 uM after 24 hrs by Fluo4 staining-based assay (reference value: 1.76%); format: functional; set-up: scale not given: the % may be the effect or the level left
Erythrocyte [6] = experiment: Cytoprotective activity in human erythrocytes assessed as decrease in STS-mediated caspase3 activation at 300 uM after 24 hrs by fluorimetric assay (reference value: 58.78%); format: functional; set-up: scale not given: the % may be the effect or the level left
[7] = Induction of eryptosis in human erythrocytes assessed as viable cells at 300 uM after 24 hrs by PE-annexinV/calcein flow cytometric assay (reference value: 97.21%); format: cell-based, Erythrocyte; settings: read-out: Activity
Erythrocyte [8] = experiment: Cytoprotective activity in human erythrocytes assessed as decrease in ionomycin-induced cytosolic free calcium level at 300 uM after 24 hrs by Fluo4 staining-based assay (reference value: 57.79%); format: functional; set-up: scale not given: the % may be the effect or the level left
Erythrocyte [9] = experiment: Cytoprotective activity against H202-induced eryptosis in human erythrocytes assessed as early apoptotic cells at 100 uM after 24 hrs by PE-annexinV/calcein flow cytometric assay (reference value: 9.34%); format: functional
[10] = Induction of eryptosis in human erythrocytes assessed as late apoptotic cells at 100 uM after 24 hrs by PE-annexinV/calcein flow cytometric assay (reference value: 0%); format: cell-based; settings: erythrocyte
Erythrocyte [11] = experiment: Cytoprotective activity against H202-induced eryptosis in human erythrocytes assessed as late apoptotic cells at 300 uM after 24 hrs by PE-annexinV/calcein flow cytometric assay (reference value: 0.13%); format: functional
[12] = Induction of eryptosis in human erythrocytes assessed as very early apoptotic cells at 100 uM after 24 hrs by PE-annexinV/calcein flow cytometric assay (reference value: 0.2%); format: cell-based; settings: erythrocyte
Erythrocyte [13] = experiment: Cytoprotective activity in human erythrocytes assessed as protection against H202-induced hemolysis at 50 to 100 uM from 2 to 24 hrs by spectrophotometry; format: functional, cell-based
Erythrocyte [14] = experiment: Cytoprotective activity in human erythrocytes assessed as decrease in H202-induced caspase-3-mediated FAM-DEVD-FMK cleavage at 300 uM after 24 hrs by fluorometric assay (reference value: 51.22%); format: functional; set-up: scale not given: the % may be the effect or the level left
[15] = Induction of eryptosis in human erythrocytes assessed as very early apoptotic cells at 300 uM after 24 hrs by PE-annexinV/calcein flow cytometric assay (reference value: 0.2%); format: cell-based; settings: erythrocyte
Erythrocyte [16] = experiment: Cytoprotective activity against H202-induced eryptosis in human erythrocytes assessed as viable cells at 100 uM after 24 hrs by PE-annexinV/calcein flow cytometric assay (reference value: 63.38%); format: functional; settings: read-out: Activity
Erythrocyte [17] = experiment: Cytoprotective activity in human erythrocytes assessed as decrease in caspase-3-mediated FAM-DEVD-FMK cleavage at 100 uM after 24 hrs by fluorometric assay (reference value: 0.28%); format: functional; set-up: scale not given: the % may be the effect or the level left
[18] = Antioxidant activity in human erythrocytes assessed as decrease in H202-induced ROS production at 300 uM after 24 hrs by DCF-based flow cytometric analysis (reference value: 68.32%); format: functional, Erythrocyte; set-up: scale not given: the % may be the effect or the level left
[19] = Induction of eryptosis in human erythrocytes assessed as early apoptotic cells at 300 uM after 24 hrs by PE-annexinV/calcein flow cytometric assay (reference value: 2.59%); format: cell-based; settings: erythrocyte
[20] = Induction of eryptosis in human erythrocytes assessed as viable cells at 100 uM after 24 hrs by PE-annexinV/calcein flow cytometric assay (reference value: 97.21%); format: cell-based, Erythrocyte; settings: read-out: Activity
Erythrocyte [21] = experiment: Cytoprotective activity against H202-induced eryptosis in human erythrocytes assessed as very early apoptotic cells at 300 uM after 24 hrs by PE-annexinV/calcein flow cytometric assay (reference value: 27.15%); format: functional
Erythrocyte [22] = experiment: Cytoprotective activity in human erythrocytes assessed as decrease in STS-mediated caspase3 activation at 100 uM after 24 hrs by fluorimetric assay (reference value: 58.78%); format: functional; set-up: scale not given: the % may be the effect or the level left
Erythrocyte [23] = experiment: Cytoprotective activity in human erythrocytes assessed as decrease in H202-induced caspase-3-mediated FAM-DEVD-FMK cleavage after 24 hrs by fluorometric assay; format: functional, cell-based
Erythrocyte [24] = experiment: Cytoprotective activity against H202-induced apoptosis in human erythrocytes assessed as decrease in cytosolic free calcium level after 24 hrs by PE-annexinV/Fluor4 flow cytometric analysis; format: functional, cell-based
Erythrocyte [25] = experiment: Antioxidant activity in human erythrocytes assessed as decrease in H202-induced ROS production after 24 hrs by DCF-based flow cytometric analysis; format: functional, cell-based
[26] = Toxicity in human erythrocytes assessed as hemolysis up to 800 uM after 2 hrs by spectrophotometry; format: cell-based; settings: erythrocyte
[27] = Antioxidant activity in human erythrocytes assessed as decrease in H202-induced ROS production at 100 uM after 24 hrs by DCF-based flow cytometric analysis (reference value: 68.32%); format: functional, Erythrocyte; set-up: scale not given: the % may be the effect or the level left
Erythrocyte [28] = experiment: Cytoprotective activity against H202-induced eryptosis in human erythrocytes assessed as very early apoptotic cells at 100 uM after 24 hrs by PE-annexinV/calcein flow cytometric assay (reference value: 27.15%); format: functional
Erythrocyte [29] = experiment: Cytoprotective activity against H202-induced apoptosis in human erythrocytes assessed as decrease in phosphatidylserine externalization after 24 hrs by PE-annexinV/Fluor4 flow cytometric analysis; format: functional, cell-based
Erythrocyte [30] = experiment: Cytoprotective activity against H202-induced eryptosis in human erythrocytes assessed as late apoptotic cells at 100 uM after 24 hrs by PE-annexinV/calcein flow cytometric assay (reference value: 0.13%); format: functional
[31] = Induction of eryptosis in human erythrocytes assessed as late apoptotic cells at 300 uM after 24 hrs by PE-annexinV/calcein flow cytometric assay (reference value: 0%); format: cell-based; settings: erythrocyte
[32] = Induction of eryptosis in human erythrocytes assessed as early apoptotic cells at 100 uM after 24 hrs by PE-annexinV/calcein flow cytometric assay (reference value: 2.59%); format: cell-based; settings: erythrocyte
Erythrocyte [33] = experiment: Cytoprotective activity against H202-induced eryptosis in human erythrocytes assessed as viable cells at 300 uM after 24 hrs by PE-annexinV/calcein flow cytometric assay (reference value: 63.38%); format: functional; settings: read-out: Activity
Erythrocyte [34] = experiment: Cytoprotective activity in human erythrocytes assessed as protection against H202-induced hemolysis from 2 to 24 hrs by spectrophotometry; format: functional, cell-based

In the case of `OC[C@H]1O[C@@H](OCCc2ccc(O)cc2)[C@H](O)[C@@H](O)[C@@H]1O` [SALIDROSIDE], the Activity (Erythrocyte [1]) is reported as 42.12%, the Activity (Erythrocyte [2]) is reported as 0.22% and the Activity (Erythrocyte [3]) is reported as 11.08%. The Activity [4] was “Non-toxic”, the Activity (Erythrocyte [5]) was 48.77% and the Activity (Erythrocyte [6]) was 47.16%. It also gave a viability at 24 h, 300 µM [7] of 97.5%, an Activity (Erythrocyte [8]) of 46.24% and an Activity (Erythrocyte [9]) of 12.38%. The Activity [10] was 0%, the Activity (Erythrocyte [11]) was 0.11% and the Activity [12] was 0.14%. The Activity (Erythrocyte [13]) was “Active”, the Activity (Erythrocyte [14]) was 37.71% and the Activity [15] was 0.04%. For the same molecule, the viability at 100 µM (Erythrocyte [16]) was 70.4%, the Activity (Erythrocyte [17]) was 0.23% and the Activity [18] was 51.39%. For the same molecule, the Activity [19] was 2.46%, the viability at 24 h, 100 µM [20] was 97.5% and the Activity (Erythrocyte [21]) was 14.16%. The Activity (Erythrocyte [22]) was 49.38%, the Activity (Erythrocyte [23]) was “Dose-dependent effect” and the Activity (Erythrocyte [24]) was “Dose-dependent effect”. The Activity (Erythrocyte [25]) was “Dose-dependent effect”, the Activity [26] was “Non-toxic” and the Activity [27] was 58.82%. For the same molecule, the Activity (Erythrocyte [28]) was 17.01%, the Activity (Erythrocyte [29]) was “Dose-dependent effect” and the Activity (Erythrocyte [30]) was 0.18%. For the same molecule, the Activity [31] was 0%, the Activity [32] was 2.38% and the viability at 300 µM (Erythrocyte [33]) was 74.7%. For the same molecule, the Activity (Erythrocyte [34]) was “Dose-dependent effect”.
